pIC50: −log10 of the molar value.
These molecules were tested against T1, c-MET (Homo sapiens, UniProt P08581) (assay: MET Transphosphorylation Assay (ELISA, poly(Glu,Tyr) 4:1 substrate)). Settings: not given.
T1 construct: Purified GST fusion protein containing the Met kinase domain, Sugen, Inc
Format: biochemical
Method: MET Transphosphorylation Assay
This assay is used to measure phosphotyrosine levels on a poly(glutamic acid:tyrosine (4:1)) substrate as a means for identifying agonists/antagonists of met transphosphorylation of the substrate.
• 1. […] PBS, Gibco Catalog #450-1300EB • 4. 50 mM HEPES • 5. […] Purified GST fusion protein containing the Met kinase domain, Sugen, Inc. • 7. TBST Buffer. • 8. 10% aqueous (MilliQue H2O) DMSO. • 9. […] 2× Kinase Dilution Buffer: for 100 ml, mix 10 mL 1M HEPES at pH 7.5 with 0.4 mL 5% BSA/PBS, 0.2 mL 0.1M sodium orthovanadate and 1 mL 5M sodium chloride in 88.4 mL dH2O. • 11. 4× ATP Reaction Mixture: for 10 mL, mix 0.4 mL 1M manganese chloride and 0.02 mL 0.1M ATP in 9.56 mL dH2O. • 12. 4× Negative Controls Mixture: for 10 mL, mix 0.4 mL 1M manganese chloride in 9.6 mL dH2O. • 13. […] 500 mM EDTA. • 15. Antibody Dilution Buffer: for 100 mL, mix 10 mL 5% BSA/PBS, 0.5 mL 5% Carnation Instant Milk® in PBS and 0.1 mL 0.1M sodium orthovanadate in 88.4 mL TBST. • 16. Rabbit polyclonal antophosphotyrosine antibody, Sugen, Inc. • 17. Goat anti-rabbit horseradish peroxidase conjugated antibody, Biosource, Inc. • 18. ABTS Solution: for 1 L, mix 19.21 g citric acid, 35.49 g Na2HPO4 and 500 mg ABTS with sufficient dH2O to make 1 L. • 19. ABTS/H2O2: mix 15 mL ABST solution with 2 μL H2O2 five minutes before use. • 20. 0.2M HCl Procedure: • 1. Coat ELISA plates with 2 μg Poly(Glu-Tyr) in 100 μL PBS, store overnight at 4° C. • 2. Block plate with 150 μL of 5% BSA/PBS for 60 min. • 3. Wash plate twice with PBS, once with 50 mM Hepes buffer pH 7.4. • 4. Add 50 μl of the diluted kinase to all wells. (Purified kinase is diluted with Kinase Dilution Buffer. Final concentration should be 10 ng/well.) • 5. Add 25 μL of the test compound (in 4% DMSO) or DMSO alone (4% in dH2O) for controls to plate. • 6. Incubate the kinase/compound mixture for 15 minutes. • 7. Add 25 μL of 40 mM MnCl2 to the negative control wells. • 8. Add 25 μL ATP/MnCl2 mixture to the all other wells (except the negative controls). Incubate for 5 min. • 9. Add 25 μL 500 mM EDTA to stop reaction. • 10. Wash plate 3× with TBST. • 11. Add 100 μL rabbit polyclonal anti-Ptyr diluted 1:10,000 in Antibody Dilution Buffer to each well. Incubate, with shaking, at room temperature for one hour. • 12. Wash plate 3× with TBST. • 13. Dilute Biosource HRP conjugated anti-rabbit antibody 1: 6,000 in Antibody Dilution buffer. Add 100 μL per well and incubate at room temperature, with shaking, for one hour. • 14. Wash plate 1× with PBS. • 15. Add 100 μl of ABTS/H2O2 solution to each well. • 16. If necessary, stop the development reaction with the addition of 100 μl of 0.2M HCl per well. • 17. […]

T1 sequence (P08581 1078-1345 limits assumed): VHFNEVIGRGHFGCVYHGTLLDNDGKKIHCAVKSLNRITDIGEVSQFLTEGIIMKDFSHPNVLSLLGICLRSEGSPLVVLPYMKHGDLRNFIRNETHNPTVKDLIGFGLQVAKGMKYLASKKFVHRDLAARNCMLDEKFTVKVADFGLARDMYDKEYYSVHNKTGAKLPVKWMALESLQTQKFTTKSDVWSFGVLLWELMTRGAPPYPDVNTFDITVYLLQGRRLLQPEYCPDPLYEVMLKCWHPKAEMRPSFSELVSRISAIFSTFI

SMILES | pIC50
COc1ccc2[nH]c3nc4nnc(Cc5ccc(O)cc5)n4nc3c2c1Cl [Example 19, 4-(5-Chloro-6-methoxy-9H-1,2,3a,4,9,10-hexaaza-cyclopenta[b]fluoren-3-ylmethyl)-phenol] | 7.92

Same assay, conditions: purified GST fusion protein containing the Met kinase domain; poly(glu, tyr) 4:1 substrate; read-out: c-MET IC50

SMILES | pIC50
Oc1ccc(Cc2nnc3nc4[nH]c5ccccc5c4nn23)cc1 [Example 17, 4-(9H-1,2,3a,4,9,10-Hexaaza-cyclopenta[b]fluoren-3-ylmethyl)-phenol] | 7.74
Oc1ccc(Cc2nnc3nc4[nH]c5c(Cl)ccc(Cl)c5c4nn23)cc1 [Example 18, 4-(5,8-Dichloro-9H-1,2,3a,4,9,10-hexaaza-cyclopenta[b]fluoren-3-ylmethyl)-phenol] | 7.44
COc1cc(Cl)c2[nH]c3nc4nnc(Cc5ccc(O)cc5)n4nc3c2c1Cl [Example 20, 4-(5,8-Dichloro-6-methoxy-9H-1,2,3a,4,9,10-hexaaza-cyclopenta[b]fluoren-3-ylmethyl)-phenol] | 7.34
Oc1ccc(Cc2nnc3nc4[nH]c5cccc(Cl)c5c4nn23)cc1 [Example 21, 4-(5-Chloro-9H-1,2,3a,4,9,10-hexaaza-cyclopenta[b]fluoren-3-ylmethyl)-phenol] | 8.00
Oc1ccc(Cc2nnc3nc4[nH]c5c(Cl)cccc5c4nn23)cc1 [Example 22, 4-(8-Chloro-9H-1,2,3a,4,9,10-hexaaza-cyclopenta[b]fluoren-3-ylmethyl)-phenol] | 7.46
Oc1ccc(Cc2nnc3nc4[nH]c5c(Cl)cc(Cl)c(Cl)c5c4nn23)cc1 [Example 23, 4-(5,6,8-Trichloro-9H-1,2,3a,4,9,10-hexaaza-cyclopenta[b]fluoren-3-ylmethyl)-phenol] | 6.34
Cc1ccc(C)c2c1[nH]c1nc3nnc(Cc4ccc(O)cc4)n3nc12 [Example 24, 4-(5,8-Dimethyl-9H-1,2,3a,4,9,10-hexaaza-cyclopenta[b]fluoren-3-ylmethyl)-phenol, dihydrate] | 7.66
Cc1cc(C)c2[nH]c3nc4nnc(Cc5ccc(O)cc5)n4nc3c2c1 [Example 25, 4-(6,8-Dimethyl-9H-1,2,3a,4,9,10-hexaaza-cyclopenta[b]fluoren-3-ylmethyl)-phenol] | 7.26
Cc1cc(Cl)cc2c1[nH]c1nc3nnc(Cc4ccc(O)cc4)n3nc12 [Example 26, 4-(6-Chloro-8-methyl-9H-1,2,3a,4,9,10-hexaaza-cyclopenta[b]fluoren-3-ylmethyl)-phenol] | 7.60
N[C@H]1CCN(C(=O)c2ccc3[nH]c4nc5nnc(Cc6ccc(F)cc6)n5nc4c3c2Cl)C1 [Example 34, [(3S)-3-Amino-pyrrolidin-1-yl]-[5-chloro-3-(4-fluoro-benzyl)-9H-1,2,3a,4,9,10-hexaaza-cyclopenta[b]fluoren-6-yl]-methanone] | 7.38
Cc1cc(OCCN2CCOCC2)c(C)c2c1[nH]c1nc3nnc(Cc4ccc(O)cc4)n3nc12 [Example 35, 4-[5,8-Dimethyl-6-(2-morpholin-4-yl-ethoxy)-9H-1,2,3a,4,9,10-hexaaza-cyclopenta[b]fluoren-3-ylmethyl]-phenol] | 7.55
Cc1cc(OCCN2CCOCC2)c(C)c2c1[nH]c1nc3nnc(Cc4ccc(F)cc4)n3nc12 [Example 36, 3-(4-Fluoro-benzyl)-5,8-dimethyl-6-(2-morpholin-4-yl-ethoxy)-9H-1,2,3a,4,9,10-hexaaza-cyclopenta[b]fluorine] | 6.25
